Reference: US7556807B2, “Signal peptides, nucleic acid molecules and methods for treatment of caries” (priority 2001, dated 2009)

Key:
[1] = system: S. mutans wild-type UA159; assay: S. mutans biofilms formed on polystyrene microtiter plates (b), SDM-glucose, safranin (first study); type: cell-based, Streptococcus mutans; details: 5 μg/ml of peptide analog; ↓ = reduced biomass compared to biofilm grown in presence of wild-type CSP
Description: Biofilms were developed in 96-well polystyrene microtiter plates. […] Wells without cells were used as blank controls. […] After the incubation, the planktonic cells were carefully removed and the plates were air dried overnight. The plates were then stained with 0.01% (wt/vol) safranin for 10 min, rinsed with sterile distilled water and air dried. Biofilms were quantified by measuring the absorbance of stained biofilms at 490 nm with a microplate reader (model 3550; Bio-Rad Laboratories, Richmond, Calif.).

[2] = system: S. mutans comD null mutant; assay: Genetic transformation of S. mutans comD null mutant in presence of H1; type: cell-based, Streptococcus mutans; details: different concentrations of H1
Description: An S. mutans UA159 comD null mutant was constructed by a PCR-based deletion strategy involving restriction-ligation and allelic replacement as described previously (Lau et al., 2002). The primers used to construct and confirm the S. mutans comD deletion mutant were P1-HK13 (5′-[…]-3′; SEQ ID NO:52), P2-HK13 (5′-[…]-3′; SEQ ID NO:53), P3-HK13 (5′-[…]-3′; SEQ ID NO:54), P4-HK13 (5′-AGATTATCATTGGC GGAAGCG-3′; SEQ ID NO:55), Erm-19 (5′-[…]-3′; SEQ ID NO:56), and Erm-20 (5′-[…] TAGAAT-3′; SEQ ID NO:57).
To determine if the peptide analogs had any impact on the development of genetic competence, S. mutans UA159 wild-type cells were assayed for genetic transformation. Overnight cultures of S. mutans UA159 were diluted (1:20) with prewarmed THYE broth and incubated at 37° C. in air with 5% CO2 until an optical density (OD) of approximately 0.1 at 600 nm was reached. The culture was then divided into six aliquots containing 1 μg/ml of plasmid pDL289 and different concentrations (0, 0.1, 0.5, 2, and 5 μg per ml) of peptide analogs. […] Total recipient cells were counted by spreading serial dilutions on THYE agar plates without antibiotic. Transformation efficiency was expressed as the percentage of kanamycin resistant transformants over the total number of recipient cells.

[3] = system: S. mutans wild-type UA159; assay: S. mutans acid resistance assay (growth in THYE at pH 7.5 and pH 5.5); type: cell-based, Streptococcus mutans; details: 5 μg/ml of peptide analog; for Growth (pH 7.5): THYE pH 7.5; for Acid resistance (pH 5.5): growth in THYE pH 5.5
Description: The effect of peptides on acid tolerance was evaluated by assessment of growth in THYE at pH 7.5 and pH 5.5. Overnight S. mutans wild-type UA159 cells were diluted (1:20) with prewarmed THYE broth and incubated at 37° C. in air with 5% CO2 until an OD600 of approximately 0.4 was reached. A 20-fold dilution was made into 400 μl of either THYE pH 7.5 or THYE pH 5.5 broth containing different concentrations (0, 0.1, 0.5, 2, and 5 μg per ml) of peptide analogs and added in the individual wells of a 100-well Bioscreen C plate in triplicate. Wells without cells were used as blank controls. A Bioscreen microbiology reader (Labsystems, Helsinki, Finland) was employed to continuously grow cells and measure cell growth for 16 h at 37° C. Measurements were taken every 20 min with shaking to prevent cell aggregation.

[4] = system: S. mutans comC deficient cells; assay: Acid resistance tolerance of S. mutans comC deficient cells with added synthetic CSP (FIG. 12); type: cell-based, Streptococcus mutans; details: synthetic CSP added to culture of comC mutant; compared to parent strain NG8
Description: The ability of CSP [SEQ ID NO:11] to promote acid resistance tolerance is determined by measuring the cell survival rate of S. mutans when exposed to acidic pH. In one example, S. mutans are first grown in batch culture to assay acid tolerance response in ‘standard’ log- and stationary-phase cells by using a modification of methods described previously by Svensäter et al. Oral Microbiol. Immunol., 12:266-73. Mid-log-phase cells are obtained by transferring one volume of overnight culture into nine volumes (1:10) of fresh TYG medium (pH 7.5) and incubated at 37° C. with 5% CO2 for 2 hours. These cells are then collected by centrifugation at 8,000×g for 10 min and resuspended in 2 ml of fresh TYG (pH 5.5) at various cell densities as determined by O.D600. The cells are induced for acid adaptation by incubation at pH 5.5 for 2 h at 37° C. with 5% CO2. The adapted log-phase cells are then exposed to the killing pH. Killing pH is pre-determined by incubating unadapted, mid-log phase cells in TYG medium at pH values from 6.0 to 2.0. Stationary-phase cells are prepared by re-suspending late-log phase cells in TY medium (tryptone-yeast extract) without glucose. […] Adaptation of both log- and stationary-phase cells to acidic pH is determined by measuring the ability of bacterial cells to survive a killing pH for 3 h. […]

[5] = system: S. mutans comC null mutant; details: exogenous addition of synthetic CSP; Li et al., 2002; cited from earlier work

| Substance | Bioflim formation (SDM-glucose) [1] | Effect of H1 on genetic competence in comD null mutant [2] | Growth (pH 7.5) [3] | Acid resistance (pH 5.5) [3] | Survival of low pH challenge by comC mutant [4] | Biofilm phenotype of comC defective mutant [5] |
| --- | --- | --- | --- | --- | --- | --- |
| H1: S. mutans CSP analog, 4th residue removed from C′ (SGSLSTFFRLFNVSFTQALGK; D2 peptide analog) | no effect | ComD-dependent process | no effect | significant decrease in cell growth | – | – |
| SGSLSTFFRLFNRSFTQALGK (MKKTLSLKNDFKEIKTDELEIIIGGSGSLSTFFRLFNRSFTQALGK; Streptococcus mutans) [CSP, reference compound] | no effect | – | ↓growth | growth | restored the ability of the mutant to survive a low pH challenge | restores the wild-type phenotype |
